Reference: ChEMBL document CHEMBL1201862, “PubChem BioAssay data set” (2004)
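48-hour exposure; five concentrations; linearly interpolated endpoints. GI50 is the concentration that inhibits growth by half.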 Active and inactive are the calls of the source. No stated cut-off is given here; in the data, active = GI50 up to about 1.1 µM and inactive = higher.

How the values were obtained:
Test in all cases: DTP human tumour cell line panel, 48 h
MOLT-4 = system: MOLT-4
MDA-MB-231 = system: MDA-MB-231
RPMI-8226 = system: RPMI-8226
PC-3 = system: PC-3
NCI-H522 = system: NCI-H522
SK-OV-3 = system: SK-OV-3
KM12 = system: KM12
OVCAR-5 = system: OVCAR-5
Malme-3M = system: Malme-3M
OVCAR-4 = system: OVCAR-4
LOX IMVI = system: LOX IMVI
HCT-15 = system: HCT-15
HT-29 = system: HT-29
DU-145 = system: DU-145
SN12C = system: SN12C
SNB-75 = system: SNB-75
K562 = system: K562
CCRF-CEM = system: CCRF-CEM
U-251 = system: U-251
SK-MEL-2 = system: SK-MEL-2

| SMILES | GI50 (MOLT-4) | GI50 (MDA-MB-231) | GI50 (RPMI-8226) | GI50 (PC-3) | GI50 (NCI-H522) | GI50 (SK-OV-3) | GI50 (KM12) | GI50 (OVCAR-5) | GI50 (Malme-3M) | GI50 (OVCAR-4) | GI50 (LOX IMVI) | GI50 (HCT-15) | GI50 (HT-29) | GI50 (DU-145) | GI50 (SN12C) | GI50 (SNB-75) | GI50 (K562) | GI50 (CCRF-CEM) | GI50 (U-251) | GI50 (SK-MEL-2) |
| --- | --- | --- | --- | --- | --- | --- | --- | --- | --- | --- | --- | --- | --- | --- | --- | --- | --- | --- | --- | --- |
| Clc1ccc(Cl)c(SCCCN2CCNCC2)c1 | 17.1 µM (inactive) | 15 µM (inactive) | 19.8 µM (inactive) | 14.6 µM (inactive) | 16.3 µM (inactive) | 15.1 µM (inactive) | 25.5 µM (inactive) | 15.5 µM (inactive) | 15.8 µM (inactive) | 20.6 µM (inactive) | 14.9 µM (inactive) | 18.7 µM | 14.6 µM (inactive) | 15.8 µM (inactive) | 19.2 µM (inactive) | 13.4 µM (inactive) | 14.6 µM (inactive) | 19.9 µM (inactive) | 16.4 µM (inactive) |  |
| O=S(=O)(O)c1cc(S(=O)(=O)O)c2c(/N=N/c3ccc(/N=N/c4ccccc4)cc3)c(O)ccc2c1 | > 100 µM (inactive) | > 100 µM (inactive) | > 100 µM (inactive) | > 100 µM (inactive) | > 100 µM (inactive) | > 100 µM (inactive) | > 100 µM (inactive) | > 100 µM (inactive) | > 100 µM (inactive) | > 100 µM (inactive) |  | > 100 µM | > 100 µM (inactive) | > 100 µM (inactive) | > 100 µM (inactive) | > 100 µM (inactive) | > 100 µM (inactive) | > 100 µM (inactive) | > 100 µM (inactive) | > 100 µM (inactive) |
| COC(=O)[C@]1(C)CCC[C@@]2(C)C1CC[C@]13C=C(C(C)C)[C@H](CC21)CC3(Cl)C#N (stereo not given in full) | 20 µM (inactive) | 42.2 µM (inactive) |  | 18.9 µM (inactive) | 26.5 µM (inactive) | > 100 µM (inactive) | 38.1 µM (inactive) | > 100 µM (inactive) | 36.6 µM (inactive) | 54.6 µM (inactive) |  | 44.7 µM | 27.4 µM (inactive) | 43.5 µM (inactive) | 51.1 µM (inactive) | 4.24 µM (inactive) | 19.5 µM (inactive) | 20.7 µM (inactive) | 19.8 µM (inactive) |  |
| COc1ncc(/C=C2\OC(=O)c3ccccc32)c(OC)n1 | 41 µM (inactive) | > 100 µM (inactive) | 5.94 µM (inactive) | 39 µM (inactive) | 26.1 µM (inactive) |  | > 100 µM (inactive) | > 100 µM (inactive) | 10.7 µM (inactive) |  | 7.16 µM (inactive) | 65.2 µM | 64.6 µM (inactive) | 88.9 µM (inactive) | > 100 µM (inactive) | 6.44 µM (inactive) | 29.2 µM (inactive) | 39.1 µM (inactive) | 13.6 µM (inactive) |  |
| O=c1c2cc(Br)ccc2oc2nc3n(c(=O)c12)CCCS3 | > 100 µM (inactive) | > 100 µM (inactive) | > 100 µM (inactive) | > 100 µM (inactive) | > 100 µM (inactive) |  | > 100 µM (inactive) | > 100 µM (inactive) | > 100 µM (inactive) | > 100 µM (inactive) | > 100 µM (inactive) | > 100 µM |  | > 100 µM (inactive) | > 100 µM (inactive) | > 100 µM (inactive) | > 100 µM (inactive) | > 100 µM (inactive) | > 100 µM (inactive) | > 100 µM (inactive) |
| O=C1c2cccc([N+](=O)[O-])c2C(=O)N1Cc1ccccc1 | > 100 µM (inactive) | > 100 µM (inactive) | > 100 µM (inactive) | > 100 µM (inactive) | > 100 µM (inactive) | > 100 µM (inactive) | > 100 µM (inactive) | > 100 µM (inactive) |  | > 100 µM (inactive) | > 100 µM (inactive) | > 100 µM | > 100 µM (inactive) | > 100 µM (inactive) | > 100 µM (inactive) | > 100 µM (inactive) | > 100 µM (inactive) | > 100 µM (inactive) | > 100 µM (inactive) | > 100 µM (inactive) |
| CC1=NN(c2cccc(Cl)c2)C(=N/c2nc3ccccc3s2)/C1=C\c1cccs1 | 26.8 µM (inactive) | 38.9 µM (inactive) | 13.4 µM (inactive) | 32.1 µM (inactive) | 27.9 µM (inactive) | 25.9 µM (inactive) | 43.8 µM (inactive) | > 100 µM (inactive) |  | 35.6 µM (inactive) | 40.7 µM (inactive) | 32.8 µM | 23.4 µM (inactive) | 44.4 µM (inactive) |  | 28 µM (inactive) | 32.7 µM (inactive) | 19.6 µM (inactive) | 24 µM (inactive) | 25.9 µM (inactive) |
| Cc1c(Cl)cccc1/N=N/C(=O)NNc1cccc(Cl)c1C | 13.3 µM (inactive) | 17.8 µM (inactive) | 25.5 µM (inactive) | 13.3 µM (inactive) | 23.1 µM (inactive) |  |  | 14.1 µM (inactive) | 16.1 µM (inactive) | 12 µM (inactive) | 21.3 µM (inactive) | 14.3 µM | 20.4 µM (inactive) | 14.4 µM (inactive) | 17.3 µM (inactive) | 18 µM (inactive) | 16.8 µM (inactive) | 16.9 µM (inactive) | 16.2 µM (inactive) | 13.6 µM (inactive) |
